Reference: patent US20260035364A1, “BICYCLIC TETRAHYDROTHIAZEPINE DERIVATIVES” (Hoffmann-La Roche Inc., priority 2022, published 2026)

Key:
DGKzeta = DGKzeta (Homo sapiens, UniProt Q13574); assay: In vitro DGK inhibition assay (ADP-Glo, liposomes), DGKzeta; type: biochemical; parameters: hDGKzeta(1-928)-N-His; His (N); made in house; host or cells: Sf21 insect cells (baculovirus); details: 2 nM DGK ζ, 50 μM ATP, 125 uM DLG in liposomes, 1 hour reaction
Procedure, shortened: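 DGKζ (2 nM) phosphorylated DLG presented in DLG/PS/PC liposomes (final DLG 125 μM) with 50 μM ATP for 1 hour. ADP formed was read by ADP-Glo luminescence. Compounds were tested as 11-point 1:3 dose responses in 2% final DMSO.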

primary human T-cells = assay: IL2 secretion measurements in CD3-stimulated T-cells; type: cell-based; details: Homo sapiens, T-cell, 24 h, CD3 condition; for Emax: IL2 after 24 hours, 20 μM reference compound A1 = 100%, read-out: Emax IL2 (% activation); for EC50: IL2 secretion after 24 hours, read-out: Tcell IL2 CD3 EC50
Procedure, shortened: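 Expanded primary human T-cells (100k/well) were stimulated on CD3 antibody-coated or PBS-coated plates with compounds in 5–6 point dose response from 20 or 10 μM top final (dilution factor 3.333, 0.2% DMSO final). IL2 in 24 h supernatants was measured by ProQuantum immunoassay or ELISA, normalized to DMSO (0%) and 20 μM reference compound A1 (100%) to fit EC50 and Emax.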

Chain of DGKzeta (Q13574 whole entry): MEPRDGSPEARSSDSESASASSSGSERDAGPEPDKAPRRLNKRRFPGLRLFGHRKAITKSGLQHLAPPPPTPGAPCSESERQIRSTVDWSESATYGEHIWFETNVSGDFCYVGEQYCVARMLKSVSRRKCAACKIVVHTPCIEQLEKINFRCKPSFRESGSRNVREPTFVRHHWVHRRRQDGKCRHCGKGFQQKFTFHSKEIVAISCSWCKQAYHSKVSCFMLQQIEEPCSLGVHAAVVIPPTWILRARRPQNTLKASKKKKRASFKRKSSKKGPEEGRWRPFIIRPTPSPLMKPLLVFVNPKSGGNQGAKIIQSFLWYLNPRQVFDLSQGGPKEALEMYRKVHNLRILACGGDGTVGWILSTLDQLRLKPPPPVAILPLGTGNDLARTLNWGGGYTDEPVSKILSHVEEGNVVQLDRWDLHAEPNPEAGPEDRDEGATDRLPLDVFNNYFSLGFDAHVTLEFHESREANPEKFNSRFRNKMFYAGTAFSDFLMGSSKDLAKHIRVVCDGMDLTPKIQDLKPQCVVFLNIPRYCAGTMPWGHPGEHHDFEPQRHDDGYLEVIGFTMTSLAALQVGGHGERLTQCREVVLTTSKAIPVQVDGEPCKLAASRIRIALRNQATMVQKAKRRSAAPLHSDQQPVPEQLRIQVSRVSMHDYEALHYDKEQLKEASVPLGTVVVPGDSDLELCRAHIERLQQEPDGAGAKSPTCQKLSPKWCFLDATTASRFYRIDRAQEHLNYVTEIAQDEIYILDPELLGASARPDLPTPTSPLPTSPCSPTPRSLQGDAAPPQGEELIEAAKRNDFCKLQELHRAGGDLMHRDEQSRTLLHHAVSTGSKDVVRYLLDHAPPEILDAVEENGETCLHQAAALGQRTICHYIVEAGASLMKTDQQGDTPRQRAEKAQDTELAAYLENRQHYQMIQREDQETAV

| Structure (SMILES) | IC50 (DGKzeta) | EC50 (primary human T-cells) | Emax (primary human T-cells) |
| --- | --- | --- | --- |
| CC1(c2nnc(-c3ccc4c(c3)N(Cc3ccc(Oc5ccccc5)cc3)C(=O)[C@@H](N)CS4(=O)=O)o2)CCCS1(=O)=O (stereo partly drawn) [Example 58, (3R)-3-amino-7-[5-(2-methyl-1,1-dioxo-thiolan-2-yl)-1,3,4-oxadiazol-2-yl]-1,1-dioxo-5-[(4-phenoxyphenyl)methyl]-2,3-dihydro-1λ6,5-benzothiazepin-4-one] | 0.586 µM | 2.93 µM | 136% |
| CC(C)(c1nnc(-c2ccc3c(c2)N(Cc2ccc(-c4ccc(F)cn4)cc2)C(=O)[C@@H](N)CS3(=O)=O)o1)S(C)(=O)=O [Example 9, (3R)-3-amino-5-[[4-(5-fluoro-2-pyridyl)phenyl]methyl]-7-[5-(1-methyl-1-methylsulfonyl-ethyl)-1,3,4-oxadiazol-2-yl]-1,1-dioxo-2,3-dihydro-1λ6,5-benzothiazepin-4-one] | 1.32 µM | 5.27 µM | 65% |
| CS(=O)(=O)C1(c2nnc(-c3ccc4c(c3)N(Cc3ccc(Oc5ccccc5)cc3)C(=O)[C@@H](N)CS4(=O)=O)o2)CC1 [Example 66, (3R)-3-amino-7-[5-(1-methylsulfonylcyclopropyl)-1,3,4-oxadiazol-2-yl]-1,1-dioxo-5-[(4-phenoxyphenyl)methyl]-2,3-dihydro-1λ6,5-benzothiazepin-4-one] | 1.16 µM | 9.17 µM | 52% |
| CC(C)(c1nnc(-c2ccc3c(c2)N(Cc2ccc(-c4ccc(C(F)(F)F)cc4)cc2)C(=O)[C@@H](N)CS3(=O)=O)o1)S(C)(=O)=O [Example 56, (3R)-3-amino-7-[5-(1-methyl-1-methylsulfonyl-ethyl)-1,3,4-oxadiazol-2-yl]-1,1-dioxo-5-[[4-[4-(trifluoromethyl)phenyl]phenyl]methyl]-2,3-dihydro-1λ6,5-benzothiazepin-4-one] | 8.88 µM | 0.741 µM | 120% |
| CC(C)(c1nnc(-c2cc3c(cc2F)S(=O)(=O)C[C@H](N)C(=O)N3Cc2ccc(-c3ccc(C(F)(F)F)cc3)cc2)o1)S(C)(=O)=O [Example 35, (3R)-3-amino-8-fluoro-7-[5-(1-methyl-1-methylsulfonyl-ethyl)-1,3,4-oxadiazol-2-yl]-1,1-dioxo-5-[[4-[4-(trifluoromethyl)phenyl]phenyl]methyl]-2,3-dihydro-1λ6,5-benzothiazepin-4-one] | 0.649 µM | 0.043 µM | 239% |

Stronger by IC50 (DGKzeta), values ahead:

| IC50 (DGKzeta) | EC50 (primary human T-cells) | Structure (SMILES) | Emax (primary human T-cells) |
| --- | --- | --- | --- |
| 0.256 µM | 0.491 µM | CC(C)(c1nc(-c2cc3c(cc2F)S(=O)(=O)C[C@H](N)C(=O)N3Cc2ccc(-c3noc(C(F)(F)F)n3)cc2)no1)S(C)(=O)=O [Example 46, (3R)-3-amino-8-fluoro-7-[5-(1-methyl-1-methylsulfonyl-ethyl)-1,2,4-oxadiazol-3-yl]-1,1-dioxo-5-[[4-[5-(trifluoromethyl)-1,2,4-oxadiazol-3-yl]phenyl]methyl]-2,3-dihydro-1λ6,5-benzothiazepin-4-one] | 317% |
| 0.31 µM | 4.27 µM | CC(C)(c1nc(-c2cc3c(cc2F)S(=O)(=O)C[C@H](N)C(=O)N3Cc2ccc(OCc3nc(C(F)(F)F)no3)cc2)no1)S(C)(=O)=O [Example 59, (3R)-3-amino-8-fluoro-7-[5-(1-methyl-1-methylsulfonyl-ethyl)-1,2,4-oxadiazol-3-yl]-1,1-dioxo-5-[[4-[[3-(trifluoromethyl)-1,2,4-oxadiazol-5-yl]methoxy]phenyl]methyl]-2,3-dihydro-1λ6,5-benzothiazepin-4-one] | 135% |
